Reference: patent publication US8637674B2, “Pyrazole derivatives, preparation method thereof, and composition for prevention and treatment of osteoporosis containing same” (EWHA University-Industry Collaboration Foundation, priority 2009, dated 2014)

Target: reactive oxygen species generated in kidney membrane (NADPH oxidase)
Experiment: Inhibition of reactive oxygen species generation in kidney membrane (lucigenin-based assay)
Type: biochemical, rat (Rattus norvegicus)
Conditions: 37° C. for 10 minutes, luminescence, compounds at 40, 10, 2.5, 0.625, 0 μM
Description: A kidney was isolated from a rat (Rattus norvegicus) and washed with phosphate buffered saline (PBS). The tissue was soaked in 20 mL of PBS buffer containing a protease inhibitor (Aprotinin 1 μg/mL-USB 11388, Leupeptin 1 μg/mL-USB-18413), finely disrupted using a mixer, and then transferred to a 50 mL conical tube (SPL 50050), followed by centrifugation at 10000 g for 10 minutes (MF-600 plus, Hanil) to sediment the undisrupted tissue. The supernatant was separated and collected in a fresh tube. The tube was placed in ice and subjected to sonication about 4 times each cycle for 30 seconds until the supernatant became clear (Branson Digital Sonifier, Model CE Converter 102C). The supernatant was transferred to a high-speed centrifugation tube (Beckman 331372) and then centrifuged at 100000 g for 1 hour (Optima™ L-90 K Preparative Ultracentrifuge, SW41Ti rotor, Beckman). After the supernatant was discarded, the remaining pellet was washed once with cold PBS and dissolved in 500 μL of cold PBS containing a protease inhibitor to obtain a murine kidney membrane.
Reactive oxygen species generated in the thus-obtained kidney membrane was analyzed by a lucigenin-based assay.
Specifically, each of the compounds synthesized in Examples of the present invention (40 μM, 10 μM, 2.5 μM, 0.625 μM, and 0 μM) was placed in a luminescence assay microplate, and the isolated kidney membrane and lucigenin were sequentially added thereto, followed by incubation at 37° C. for 10 minutes. Then, the intensity of luminescence was measured in a luminometer (MicroLumatPlus LB96V Microplate Luminometer, Berthold) to assay the generation of reactive oxygen species in the murine kidney membrane, followed by calculating an EC50 value of the inventive compounds.

| SMILES | EC50 [nM] |
| --- | --- |
| Oc1cc(COc2ccc(Cl)cc2Cl)nn1-c1ccccn1 [Compound 6d, 3-((2,4-dichlorophenoxy)methyl)-1-(pyridin-2-yl)-1H-pyrazol-5-ol] | 1800 |
| Oc1cc(COc2ccccc2)nn1-c1ccccn1 [Compound 6a, 3-(phenoxymethyl)-1-(pyridin-2-yl)-1H-pyrazol-5-ol] | 7500 |
| Oc1cc(C=Cc2ccc(C(F)(F)F)cc2)nn1-c1ccccn1 [Compound 9f, 3-(4-trifluoromethylstyryl)-1-(pyridin-2-yl)-1H-pyrazol-5-ol] | 500 |
| Oc1cc(COc2ccc3ccccc3c2)nn1-c1ccccn1 [Compound 6b, 3-((naphthalen-3-yloxy)methyl)-1-(pyridin-2-yl)-1H-pyrazol-5-ol] | 400 |
| Oc1cc(Cc2ccc(Cl)cc2)nn1-c1ccccn1 [Compound 3e, 3-(p-chlorobenzyl)-1-(pyridin-2-yl)-1H-pyrazol-5-ol] | 1500 |
| COc1ccc(C=Cc2cc(O)n(-c3ccccn3)n2)cc1 [Compound 9b, 3-(4-methoxystyryl)-1-(pyridin-2-yl)-1H-pyrazol-5-ol] | 500 |
| Oc1cc(C=Cc2ccccc2)nn1-c1ccccn1 [Compound 9a, 1-(pyridin-2-yl)-3-styryl-1H-pyrazol-5-ol] | 500 |
| COc1ccc(C=Cc2cc(O)n(-c3ccccn3)n2)cc1OC [Compound 9c, 3-(3,4-dimethoxystyryl)-1-(pyridin-2-yl)-1H-pyrazol-5-ol] | 600 |
| Oc1cc(C=Cc2ccc(Cl)c(Cl)c2)nn1-c1ccccn1 [Compound 9d, 3-(3,4-dichlorostyryl)-1-(pyridin-2-yl)-1H-pyrazol-5-ol] | 1700 |
| Oc1ccc(C=Cc2cc(O)n(-c3ccccn3)n2)cc1 [Compound 9k, 3-(4-hydroxystyryl)-1-(pyridin-2-yl)-1H-pyrazol-5-ol] | 1500 |
| Oc1cc(CCc2ccccc2)nn1-c1ccccn1 [Compound 3d, 3-phenethyl-1-(pyridin-2-yl)-1H-pyrazol-5-ol] | 10000 |
| CC(C)(C)[Si](C)(C)Oc1ccc(/C=C/c2cc(O)n(-c3ccccn3)n2)cc1 [Compound 9g] | 900 |
